Source: patent US20220259249A1, “INHIBITORS OF ANTIBIOTIC RESISTANCE MEDIATED BY ARNT” (priority 2019, published 2022)
Read-outs that look alike come from different tables or passages of the source.

What was measured:
[1] = test system: P. aeruginosa PA14 col^R 5 (colistin-resistant strain); experiment: microbe, parasite or virus in culture; type: cell-based; conditions: for IC90: read-out: IC90, synergy with colistin (8 μg/ml), minimum concentration causing at least 90% growth inhibition; for antibacterial activity per se: in the absence of colistin; for inhibition of bacterial growth in the presence of colistin: colistin 8 μg/ml
Method: The compounds identified by in silico screening were tested for their antibacterial activity (in the absence of colistin) and for their synergistic or adjuvant activity with colistin against a colistin-resistant strain of P. aeruginosa grown in the absence or presence of a sub-inhibitory concentration of colistin (8 μg/ml).
This strain over-expresses the am genes responsible for the modification of lipopolysaccharide by the addition of L-amino-arabinose.
The strain was grown in Mueller-Hinton (MH) medium for 8 hours, and inoculated at a cell density of ˜10^6/ml in MH medium supplemented or not with colistin at a concentration of 16 μg/ml. […] The microtitration plates were incubated at 37° C. without stirring for 24 hours. Bacterial growth was assessed by measuring absorbance at 600 nm (A600) in a microplate reader (Victor 2^V, Perkin-Elmer). […] For each compound three independent experiments were conducted, and the averages of the values obtained in the three experiments are considered to determine the values of IC50 e IC90.

[2] = test system: 16HBE cells (human epithelial cells of bronchial origin); experiment: Cell viability test (MTT reduction);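 further: formazan absorbance at 570 nm after MTT reduction, corrected for cell-free blank wells, reported relative to untreated cells, from duplicate wells over three independent repeats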
Method: The cytotoxic potential of the compounds was evaluated on cell cultures in vitro. […] The results are reported in the table as viability (%) compared to untreated cells (Table 4).
To evaluate the cytotoxic potential of the compounds under examination, the MTT (3-(4,5-dimethylthiazol-2-yl)-2,5-diphenyltetrazolium) reduction test, commonly used to monitor cell viability was used following the exposure to potentially cytotoxic agents. The essay is based on the reduction of MTT to formazan, a compound that assumes a blue colour which can be evaluated by spectrophotometric reading at a wavelength of 570 nm. For the essay we used the 16HBE cell line. […] Each test was performed in duplicate and three independent replicas were made.
Cell viability was calculated as follows:
COD570=OD570 of sample−OD570 of wells without cells (white)
Viability=100−reduction (%)
where: NT indicates the samples of cells non-threated with the compounds; T the samples of cells treated with the compounds at the different concentrations.
The mean cell viability values were calculated using the Excel mean and standard deviation functions.

[3] = Pseudomonas aeruginosa, PA14, 24 h, read-out: IC50 without colistin
[4] = read-out: IC50, synergy with colistin (8 μg/ml), PA14 ColR5, colistin 8 μg/ml (sub-inhibitory), minimum concentration causing at least 50% growth inhibition, 24 h
[5] = PA14 ColR5, colistin 8 μg/ml (sub-inhibitory), 24 h
[6] = 16HBE, 1.95 μM, 18 hours, MTT, vs untreated cells
[7] = 16HBE, 3.91 μM, 18 hours, MTT, vs untreated cells
[8] = 16HBE, 7.81 μM, 18 hours, MTT, vs untreated cells
[9] = 16HBE, 15.63 μM, 18 hours, MTT, vs untreated cells
[10] = 16HBE, 125 μM, 18 hours, MTT, vs untreated cells
[11] = 16HBE, 250 μM, 18 hours, MTT, vs untreated cells
[12] = 16HBE, 62.5 μM, 18 hours, MTT, vs untreated cells

COC(=O)[C@]1(C)CCC[C@@]2(C)C3CC[C@@]4(C)C[C@]3(CCC21)CC4=O (single isomer, unassigned; ent-16) [SR7, methyl ester of ent-16-oxo-beyeran-19-oic acid]
IC50 [1, 3]: > 250 µM
IC50 [1, 4]: > 250 µM
IC90 [1, 5]: > 250 µM

O=C1c2c(O)cccc2[C@H]([C@@H]2O[C@H](CO)[C@@H](O)[C@H](O)[C@H]2O)c2cc(CO)cc(O)c21 [BBN36, (10S)-1,8-dihydroxy-3-(hydroxymethyl)-10-[(2S, 3R, 4R, 5S, 6R)-3,4,5-trihydroxy-6-(hydroxymethyl)oxan-2-yl]-10 H-anthracen-9-one]
IC50 [1, 3]: > 250 µM
IC50 [1, 4]: > 250 µM
IC90 [1, 5]: > 250 µM

O=C(/C=C/c1ccc(O)c(O)c1)O[C@@H]1C[C@](O)(C(=O)O)C[C@@H](O)[C@H]1O [BBN53, (1S, 3R, 4R, 5R)-3-[(E)-3-(3,4-dihydroxyphenyl)prop-2-enoyl]oxy-1,4,5-trihydroxycyclohexane-1-carboxylic acid]
IC50 [1, 3]: > 250 µM
IC50 [1, 4]: > 250 µM
IC90 [1, 5]: > 250 µM

O=C(CCc1ccc(O)cc1)c1c(O)cc(O)cc1O [BBN101, 3-(4-hydroxyphenyl)-1-(2,4,6-trihydroxyphenyl)propan-1-one]
IC50 [1, 3]: > 250 µM
IC50 [1, 4]: > 250 µM
IC90 [1, 5]: > 250 µM

COc1cc(O)c(O)c(CC=C(C)C)c1-c1coc2cc(O)cc(O)c2c1=O [BBN118, 3-[3,4-dihydroxy-6-methoxy-2-(3-methylbut-2-enyl)phenyl]-5,7-dihydroxycromen-4-one]
IC50 [1, 3]: > 250 µM
IC90 [1, 5]: > 250 µM

CC1(C)C=Cc2c(cc(O)c3c(=O)c4cc5c(c(O)c4oc23)OC(C)(C)C=C5)O1 [BBN119, 11,22-dihydroxy-7,7,19,19-tetramethyl-2,8,20-trioxapentacyclo [12.8.0.03,120,04,90,016,21]docosa-1(14), 3(12), 4(9), 5, 10, 15, 17, 21-octaen-13-one]
IC50 [1, 3]: > 250 µM
IC50 [1, 4]: > 250 µM
IC90 [1, 5]: > 250 µM

C=CC(C)(C)c1c2c(c3oc4c(O)c(O)ccc4c(=O)c3c1O)C(C)(C)C(C)O2 (stereo not drawn) [BBN120, rheediaxanthone B]
IC50 [1, 3]: > 250 µM
IC90 [1, 5]: > 250 µM

Cc1nccc2c1[nH]c1ccccc12 [BBN135, 1-methyl-9H-pyrido[3,4-b]indole]
IC50 [1, 3]: > 250 µM
IC50 [1, 4]: > 250 µM
IC90 [1, 5]: > 250 µM

COC(=O)C1=CO[C@@H](O[C@@H]2O[C@H](CO)[C@@H](O)[C@H](O)[C@H]2O)[C@@H]2[C@@H](C)[C@@H](O)C[C@H]12 [BBN139, methyl (1S, 4aS, 6S, 7R, 7aS)-6-hydroxy-7-methyl-1-[(2 S, 3 R, 4 S, 5S, 6R)-3,4,5-trihydroxy-6-(hydroxymethyl)oxan-2-yl]oxy-1,4a, 5,6,7,7a-haxidrocrociclopenta [c] piran-4-carboxylate]
IC50 [1, 3]: > 250 µM
IC50 [1, 4]: > 250 µM
IC90 [1, 5]: > 250 µM

COc1cc2ccc(=O)oc2cc1OC/C=C(\C)CCC=C(C)C [BBN146, 6-methoxy-7-O-geranyl-coumarin]
IC50 [1, 3]: > 250 µM
IC50 [1, 4]: > 250 µM
IC90 [1, 5]: > 250 µM

CC(C)=CCc1c(O)cc2c(c1O)C(=O)[C@H](O)[C@@H](c1ccc(O)cc1)O2 [BBN147, 6-prenyl-aromadendrine]
IC50 [1, 3]: > 250 µM
IC90 [1, 5]: > 250 µM

CC(C)=CCc1c(O)c(C(=O)c2ccccc2)c(O)c2c1OC(C)(C)C=C2 [BBN148, [5,7-dihydroxy-2,2-dimethyl-8-(3-methylbut-2-enyl)cromen-6-yl]-phenylmethanone]
IC50 [1, 3]: > 250 µM
IC50 [1, 4]: > 250 µM
IC90 [1, 5]: > 250 µM

O=C(O)c1cc(O)c2c(c1)C(=O)c1cccc(O)c1C2=O [BBN152, 4,5-dihydroxy-9,10-dioxoanthracene-2-carboxylic acid]
IC50 [1, 3]: > 250 µM
IC50 [1, 4]: > 250 µM
IC90 [1, 5]: > 250 µM

CC(C)=CCC/C(C)=C/COc1ccc(C(=O)/C=C/c2ccccc2)cc1 [BBN154, 4′-O-geranil-calcone]
IC50 [1, 3]: > 250 µM
IC50 [1, 4]: > 250 µM
IC90 [1, 5]: > 250 µM

C[C@]12C=C[C@@]3(CCC4[C@@](C)(CO)CCC[C@@]4(C)C3CC1)C2 (stereo partly drawn) [FDA, ent-beyer-15-en-18-ol]
IC50 [1, 3]: > 250 µM
antibacterial activity per se [1]: none of the compounds showed antibacterial activity per se
IC50 [1, 4]: > 250 µM
IC90 [1, 5]: > 250 µM

C[C@]12C=C[C@@]3(CCC4[C@@](C)(COC(=O)CC(=O)O)CCC[C@@]4(C)C3CC1)C2 (stereo partly drawn) [FDM, ent-beyer-15-en-18-O-malonic acid]
Average percentage of cell viability (±standard deviation) [2]: 106.63 ± 2.87%
Average percentage of cell viability (±standard deviation) [2, 6]: 102.92 ± 7.31%
Average percentage of cell viability (±standard deviation) [2, 7]: 96.70 ± 1.60%
Average percentage of cell viability (±standard deviation) [2, 8]: 97.93 ± 2.17%
Average percentage of cell viability (±standard deviation) [2, 9]: 107.42 ± 0.01%
Average percentage of cell viability (±standard deviation) ([2]; 16HBE, 31.25 μM, 18 hours, MTT, vs untreated cells): 113.17 ± 8.95%
Average percentage of cell viability (±standard deviation) [2, 10]: 100.48 ± 12.78%
Average percentage of cell viability (±standard deviation) [2, 11]: 85.01 ± 2.40%
IC50 [1, 3]: > 250 µM
inhibition of bacterial growth in the presence of colistin [1]: able to inhibit bacterial growth in the presence of colistin
antibacterial activity per se [1]: none of the compounds showed antibacterial activity per se
IC50 [1, 4]: 62.5 µM
IC90 [1, 5]: > 250 µM

C[C@]12C=C[C@@]3(CCC4[C@@](C)(COC(=O)CCC(=O)O)CCC[C@@]4(C)C3CC1)C2 (stereo partly drawn) [FDS, ent-beyer-15-en-18-O-succinic acid]
Average percentage of cell viability (±standard deviation) [2]: 102.95 ± 6.74%
Average percentage of cell viability (±standard deviation) [2, 6]: 98.93 ± 5.38%
Average percentage of cell viability (±standard deviation) [2, 7]: 95.34 ± 8.28%
Average percentage of cell viability (±standard deviation) [2, 8]: 93.53 ± 2.01%
Average percentage of cell viability (±standard deviation) [2, 9]: 99.77 ± 6.58%
Average percentage of cell viability (±standard deviation) [2, 12]: 102.15 ± 3.15%
Average percentage of cell viability (±standard deviation) [2, 10]: 105.88 ± 1.31%
Average percentage of cell viability (±standard deviation) [2, 11]: 86.12 ± 3.18%
IC50 [1, 3]: > 250 µM
inhibition of bacterial growth in the presence of colistin [1]: able to inhibit bacterial growth in the presence of colistin
antibacterial activity per se [1]: none of the compounds showed antibacterial activity per se
IC50 [1, 4]: 31.2 µM
IC90 [1, 5]: > 250 µM

C=C1C[C@@]23CCC4[C@@](C)(CCC[C@@]4(C)C(=O)O)C2CC[C@]1(O)C3 (stereo partly drawn) [SR5, 13-hydroxy-kaur-16-en-19-oic acid]
IC50 [1, 3]: > 250 µM
IC50 [1, 4]: > 250 µM
IC90 [1, 5]: > 250 µM

C[C@@]12CCC3[C@@](CCC4[C@](C)(COC(=O)C(=O)O)CCC[C@]43C)(CC1)C2 (stereo partly drawn) [SR8, ent-beyeran-19-O-oxalic acid]
Average percentage of cell viability (±standard deviation) [2]: 90.55 ± 4.17%
Average percentage of cell viability (±standard deviation) [2, 6]: 100.17 ± 14.21%
Average percentage of cell viability (±standard deviation) [2, 7]: 97.84 ± 10.19%
Average percentage of cell viability (±standard deviation) [2, 8]: 90.33 ± 4.26%
Average percentage of cell viability (±standard deviation) [2, 9]: 92.64 ± 6.57%
Average percentage of cell viability (±standard deviation) [2, 12]: 85.68 ± 6.99%
Average percentage of cell viability (±standard deviation) [2, 10]: 78.02 ± 7.46%
Average percentage of cell viability (±standard deviation) [2, 11]: 80.16 ± 2.01%
IC50 [1, 3]: > 250 µM
IC90 [1, 5]: > 250 µM

C[C@@]12CCC3[C@@](CCC4[C@](C)(CO)CCC[C@]43C)(CC1)C2 (stereo partly drawn) [SR9, ent-beyeran-19-ol]
IC50 [1, 3]: > 250 µM
IC50 [1, 4]: > 250 µM
IC90 [1, 5]: > 250 µM

C[C@@]12CCC3[C@@](CCC4[C@@]3(C)CCC[C@@]4(C)C(=O)O)(CC1)C2 (stereo partly drawn) [SR10, ent-beyeran-19-oic acid]
Average percentage of cell viability (±standard deviation) [2]: 99.52 ± 9.52%
Average percentage of cell viability (±standard deviation) [2, 6]: 105.21 ± 6.73%
Average percentage of cell viability (±standard deviation) [2, 7]: 104.95 ± 6.36%
Average percentage of cell viability (±standard deviation) [2, 8]: 101.00 ± 7.12%
Average percentage of cell viability (±standard deviation) [2, 9]: 97.98 ± 1.66%
Average percentage of cell viability (±standard deviation) [2, 12]: 99.80 ± 4.30%
Average percentage of cell viability (±standard deviation) [2, 10]: 92.07 ± 5.47%
Average percentage of cell viability (±standard deviation) [2, 11]: 1.47 ± 2.29%
reduction in cell viability ([2]; 16HBE, highest concentration (250 μM), 18 hours): total reduction of cell viability
IC50 [1, 3]: > 250 µM
IC90 [1, 5]: > 250 µM
